Consider two compounds from paper PMC12292835, “Amylin Receptor 1 Mutagenesis Revealed a Potential Role of Calcitonin Serine 29 in Receptor Interaction” (Biomedicines, 2025).

Structures are written as SMILES. Where a SMILES comes first, the peptide text is derived from it. The star is where a group is joined. FITC = O=C1OC2(c3ccc(O)cc3Oc3cc(O)ccc32)c2ccc(NC(=S)*)cc21

For test [1], the target named is T1, amylin receptor 1 ECD with calcitonin receptor D101E mutation (Homo sapiens, UniProt O60894+P30988, D101E).
T1 construct: pHLsec/hRAMP1.24–111-(GSA)3-hCTR.34–141.D101E-H6 (D-pJJ002); H6 (hexahistidine) (C); made in house; host or cells: HEK293 (transient transfection, secreted, N-glycosylated)
T1 sequence (O60894 24-111): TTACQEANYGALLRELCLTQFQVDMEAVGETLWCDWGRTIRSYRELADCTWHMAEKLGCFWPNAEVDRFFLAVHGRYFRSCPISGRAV
T1 sequence (P30988 34-141 D101E): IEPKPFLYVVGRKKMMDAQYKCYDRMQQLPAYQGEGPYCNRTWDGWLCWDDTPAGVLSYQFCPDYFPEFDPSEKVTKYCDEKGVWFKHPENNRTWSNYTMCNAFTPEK
Nature of the test: FP saturation binding, D101E. The following applies: for Average fluorescence intensity change upon receptor ECD binding: % of a free probe intensity, Mean ± S.D., max receptor 3 μM (sCT), 1 μM (AC413). From the text: (§1) pHLsec-based vectors were used to express wild-type and mutated amylin receptor 1 extracellular domains as secreted proteins to cell culture media. The plasmid DNA construct of the wild-type amylin receptor 1 extracellular domain, pHLsec/hRAMP1.24–111-(GSA)3-hCTR.34–141-H6 (H-pSL005) was previously described. The following DNA vector plasmids were made for this study: pHLsec/hRAMP1.24–111-(GSA)3-hCTR.34–141.D97A-H6 (D-pSL009), pHLsec/hRAMP1.24–111-(GSA)3-hCTR.34–141.D97E-H6 (D-pJS001), pHLsec/hRAMP1.24–111-(GSA)3-hCTR.34–141.D101A-H6 (D-pJJ003), pHLsec/hRAMP1.24–111-(GSA)3-hCTR.34–141.D101E-H6 (D-pJJ002), pHLsec/hRAMP1.24–111-(GSA)3-hCTR.34–141.E123A-H6 (D-pJJ004), pHLsec/hRAMP1.24–111-(GSA)3-hCTR.34–141.E123D-H6 (D-pJJ001), pHLsec/hRAMP1.24–111-(GSA)3-hCTR.34–141.N124A-H6 (D-pJS005), pHLsec/hRAMP1.24–111-(GSA)3-hCTR.34–141.N124D-H6 (D-pJS006), pHLsec/hRAMP1.24–111-(GSA)3-hCTR.34–141.N135A-H6 (D-pJW001), and pHLsec/hRAMP1.24–111-(GSA)3-hCTR.34–141.N135D-H6 (D-pJS002). The mutations were introduced to the calcitonin receptor extracellular domain by using DNA Assembly reaction. Coding sequences of the receptor expression vectors were confirmed with Sanger sequencing by Bionics (Seoul, Republic of Korea). DNA plasmid vectors were extracted and were purified from bacterial cells with NucleoBond® Extra Midi Plus kit (Macherey-Nagel, Germany). The purified DNA vectors were stored at −20 °C until their use for mammalian cell transfection.
The overall experimental procedure of reconstituting the functional amylin receptor 1 extracellular domain (ECD) as the fusion protein of RAMP1 ECD and the calcitonin receptor ECD was previously described. The wild-type and mutated amylin receptor 1 ECDs were expressed from HEK293 cells with transient transfection with polyethylenimine. […]
(§2) The overall procedure of the FP binding assay with a saturation binding format was previously described. […] FITC-labeled peptide probes were incubated for 1 h at room temperature with the purified receptor protein prior to fluorescence signal measurement. […]

Test [2] concerns the target T2, amylin receptor 1 ECD with calcitonin receptor N124A mutation (Homo sapiens, UniProt O60894+P30988, N124A).
T2 construct: pHLsec/hRAMP1.24–111-(GSA)3-hCTR.34–141.N124A-H6 (D-pJS005); H6 (hexahistidine) (C); made in house; host or cells: HEK293 (transient transfection, secreted, N-glycosylated)
Nature of the test: FP saturation binding, N124A. The following applies: for Average fluorescence intensity change upon receptor ECD binding: % of a free probe intensity, Mean ± S.D., N124A, max receptor 1 μM; for decrease of binding affinity: N124A versus wild-type receptor ECD.
Excerpt: as §1
(§3) The overall experimental procedure of reconstituting the functional amylin receptor 1 extracellular domain (ECD) as the fusion protein of RAMP1 ECD and the calcitonin receptor ECD was previously described. The wild-type and mutated amylin receptor 1 ECDs were expressed from HEK293 cells with transient transfection with polyethylenimine. The expressed receptor proteins were secreted to cell culture media for 4 days at 37 °C. The media were collected for the receptor protein purification. Initial dialysis was performed with the dialysis buffer (Tris 25 mM (pH 7.4), NaCl 150 mM, and imidazole 10 mM) overnight. […] Then, a size exclusion column chromatography (SEC) was performed with SEC column (Cytiva, HiLoad® 16/600 Superdex® 200 pg) and SEC buffer (Tris 50 mM (pH 7.4), NaCl 150 mM, and glycerol (v/v) 10%) as previously described. As the final step, the purified receptor proteins were dialyzed to storage buffer (HEPES 25 mM (pH 7.4), NaCl 150 mM, and glycerol (v/v) 50 %) and were stored at −60 °C until their use for the receptor–ligand binding assay. […]
as §2

Test [3] has as its target T3, amylin receptor 1 ECD with calcitonin receptor E123A mutation (Homo sapiens, UniProt O60894+P30988, E123A).
T3 construct: pHLsec/hRAMP1.24–111-(GSA)3-hCTR.34–141.E123A-H6 (D-pJJ004); H6 (hexahistidine) (C); made in house; host or cells: HEK293 (transient transfection, secreted, N-glycosylated)
Nature of the test: FP saturation binding, E123A. The following applies: for Average fluorescence intensity change upon receptor ECD binding: % of a free probe intensity, Mean ± S.D., E123A, max receptor 3 μM (sCT), 1 μM (AC413); for decrease of binding affinity: E123A versus wild-type receptor ECD.
Excerpt: as §1, §3, §2

In test [4] the target is T4, amylin receptor 1 ECD with calcitonin receptor D97E mutation (Homo sapiens, UniProt O60894+P30988, D97E).
T4 construct: pHLsec/hRAMP1.24–111-(GSA)3-hCTR.34–141.D97E-H6 (D-pJS001); H6 (hexahistidine) (C); made in house; host or cells: HEK293 (transient transfection, secreted, N-glycosylated)
T4 sequence (O60894 24-111): as the sequence (O60894 24-111) above
T4 sequence (P30988 34-141 D97E): as the sequence (P30988 34-141 D101E) above, with D64E, E68D counted along it
Nature of the test: FP saturation binding, D97E. The conditions noted are these: for Average fluorescence intensity change upon receptor ECD binding: % of a free probe intensity, Mean ± S.D., max receptor 3 μM (sCT), 1 μM (AC413); for effect of mutation on binding affinity: in words.
Excerpt: as §1, §3, §2

In test [5] the target is T5, amylin receptor 1 ECD with calcitonin receptor N124D mutation (Homo sapiens, UniProt O60894+P30988, N124D).
T5 construct: pHLsec/hRAMP1.24–111-(GSA)3-hCTR.34–141.N124D-H6 (D-pJS006); H6 (hexahistidine) (C); made in house; host or cells: HEK293 (transient transfection, secreted, N-glycosylated)
T5 sequence (O60894 24-111): as the sequence (O60894 24-111) above
T5 sequence (P30988 34-141 N124D): as the sequence (P30988 34-141 D101E) above, with E68D, N91D counted along it
Put plainly: FP saturation binding, N124D. The conditions noted are these: for Average fluorescence intensity change upon receptor ECD binding: % of a free probe intensity, Mean ± S.D., max receptor 3 μM (sCT), 1 μM (AC413); for effect of mutation on binding affinity: compared with N124A, in words.
Excerpt: as §1
The overall experimental procedure of reconstituting the functional amylin receptor 1 extracellular domain (ECD) as the fusion protein of RAMP1 ECD and the calcitonin receptor ECD was previously described. The wild-type and mutated amylin receptor 1 ECDs were expressed from HEK293 cells with transient transfection with polyethylenimine. The expressed receptor proteins were secreted to cell culture media for 4 days at 37 °C. The media were collected for the receptor protein purification. Initial dialysis was performed with the dialysis buffer (Tris 25 mM (pH 7.4), NaCl 150 mM, and imidazole 10 mM) overnight. […] Then, a size exclusion column chromatography (SEC) was performed with SEC column (Cytiva, HiLoad® 16/600 Superdex® 200 pg) and SEC buffer (Tris 50 mM (pH 7.4), NaCl 150 mM, and glycerol (v/v) 10%) as previously described. As the final step, the purified receptor proteins were dialyzed to storage buffer (HEPES 25 mM (pH 7.4), NaCl 150 mM, and glycerol (v/v) 50 %) and were stored at −60 °C until their use for the receptor–ligand binding assay. All purification procedures were performed at 4 °C.
Two peptide probes labeled with fluorescein isothiocyanate (FITC) were used for this study: FITC-labeled salmon calcitonin (sCT) fragment(22–32) and FITC-labeled AC413(6–25) with Y25P mutation. These peptide probes were custom-synthesized from Genscript (Piscataway, NJ, USA). These peptides were used as the probes for the receptor–ligand binding assay. These peptides were HPLC-purified with at least 85% purity by Genscript (Piscataway, NJ, USA). Mass spectrometry performed at Genscript confirmed the correct molecular mass of the synthesized peptides. The extinction coefficient of FITC (63,000 M^−1·cm^−1 at 495 nm, pH 7.0) was used to calculate the concentration of the peptides.
The overall procedure of the FP binding assay with a saturation binding format was previously described. A total of 10 nM FITC-labeled sCT(22–32) and 10 nM FITC-labeled AC413(6–25) with Y25P mutation were used for the receptor–ligand binding assay. For the saturation binding format, the non-linear regression curves were generated by using user-defined equations that were previously described for affinity calculation. FITC-labeled peptide probes were incubated for 1 h at room temperature with the purified receptor protein prior to fluorescence signal measurement. […]

T3 sequence (O60894 24-111): as the sequence (O60894 24-111) above
T3 sequence (P30988 34-141 E123A): as the sequence (P30988 34-141 D101E) above, with E68D, E90A counted along it
T2 sequence (O60894 24-111): as the sequence (O60894 24-111) above
T2 sequence (P30988 34-141 N124A): as the sequence (P30988 34-141 D101E) above, with E68D, N91A counted along it

For `CC(C)C[C@H](NC(=O)[C@H](CCCNC(=N)N)NC(=O)[C@@H](NC(=O)[C@H](CC(C)C)NC(=O)[C@H](Cc1ccccc1)NC(=O)[C@H](CC(N)=O)NC(=O)[C@H](C)NC(=S)Nc1ccc2c(c1)C(=O)OC21c2ccc(O)cc2Oc2cc(O)ccc21)C(C)C)C(=O)N[C@@H](CCC(N)=O)C(=O)N[C@H](C(=O)N[C@@H](Cc1ccc(O)cc1)C(=O)N1CCC[C@H]1C(=O)N[C@@H](CCCNC(=N)N)C(=O)N[C@H](C(=O)N[C@@H](CC(N)=O)C(=O)N[C@H](C(=O)NCC(=O)N[C@@H](C)C(=O)N[C@@H](CC(N)=O)C(=O)N[C@H](C(=O)N1CCC[C@H]1C(N)=O)[C@@H](C)O)C(C)C)[C@@H](C)O)[C@@H](C)O` [FITC-AC413(6–25) Y25P] ({FITC}-ANFLVRLQTYPRTNVGANTP-NH2; C-terminus assumed), the “Average fluorescence intensity change upon receptor ECD binding” value is 99 ± 3% in test [1]; 87 ± 2% in test [2]; 77 ± 13% in test [3]; 68 ± 3% in test [4]; 88 ± 8% in test [5]. The “decrease of binding affinity” value was 8.2 fold in test [2] and 2.3 fold in test [3]. The results for the “effect of mutation on binding affinity” value in test [4], in test [5] and in test [5] (listed as AC413 fragment) were “not significantly changed”, “failed to restore the decreased binding affinity” and “failed to restore the decreased affinity”, respectively.
In the case of `C[C@@H](O)[C@H](NC(=O)[C@H](CC(N)=O)NC(=O)[C@@H](NC(=O)[C@H](CCCNC(=N)N)NC(=O)[C@@H]1CCCN1C(=O)[C@H](Cc1ccc(O)cc1)NC(=S)Nc1ccc2c(c1)C(=O)OC21c2ccc(O)cc2Oc2cc(O)ccc21)[C@@H](C)O)C(=O)NCC(=O)N[C@@H](CO)C(=O)NCC(=O)N[C@H](C(=O)N1CCC[C@H]1C(N)=O)[C@@H](C)O` [FITC-sCT(22–32)] ({FITC}-YPRTNTGSGTP-NH2; C-terminus assumed), the “Average fluorescence intensity change upon receptor ECD binding” value is listed as 118 ± 13% in test [1]; 85 ± 11% in test [2]; 72 ± 1% in test [3]; 78 ± 4% in test [4]; 77 ± 5% in test [5]. Besides, the “effect of mutation on binding affinity” value in test [1] (in words) is on record as “failed to recover the binding affinity”; in test [4], “partially restored the decreased affinity”; in test [5], “fully restored the decreased binding affinity”; in test [5] (listed as salmon calcitonin fragment), “restored the decreased affinity”. Moreover, the “decrease of binding affinity” value in test [2] is on record as “more than 10 fold”; in test [3], 4.5 fold.
